From patent publication US20100324147A1, “ARYLCYCLOPROPYLAMINES AND METHODS OF USE” (priority 2009, published 2010)

Tests used:
Assay type in all cases: biochemical
Settings in all cases: for Ki: inhibitor concentration that yields half the maximal rate of inactivation; for kinact: maximal rate of inactivation
LSD1 = LSD1 (Homo sapiens, UniProt O60341); assay: HRP-coupled amine oxidase assay, time-dependent inactivation of LSD1
Method: (§1) For example, in vitro enzymatic assays may be performed in which hydrogen peroxide generated from reoxidation of the FAD cofactor by molecular oxygen by LSD1 or MAOs is monitored, e.g., using a horseradish peroxidase (HRP) coupled assay. The enzyme may be incubated with an appropriate peptide substrate that includes a dimethylated lysine residue, as well as an arylcyclopropylamine compound of the invention. A fluorogenic substrate may be included in the reaction, which upon reaction with H2O2 produced by the enzyme produces a fluorescent substrate that may be detected. Inhibition kinetics may then be determined by appropriate fitting of the data.
The C-terminal GYG was added to allow for quantification of the peptide concentration.
(§2) The peroxide production generated from reoxidation of the FAD cofactor by molecular oxygen by LSD1 or MAOs was monitored using a horseradish peroxidase (HRP) coupled assay (FIG. 1). Amplex red was used as the fluorogenic electron acceptor and the fluorescence (excitation 560 nm, emission 590 nm) was measured using a Molecular Devices Spectra Max Gemini EM plate reader. The inhibition kinetics were determined by fitting the progress curves to eq. 1 describing time-dependent inactivation to determine kobs:
(§3) product=(vi/kobs)(1−e^−k^obs^t) (1)
(§4) where vi is the initial rate prior to inactivation, t is time and kobs is the observed rate of inactivation. The resulting values were plotted as a function of inhibitor concentration to obtain values of Ki and kinact according to eq. 2.
(§5) where kinact is the maximal rate of inactivation and Ki is the inhibitor concentration that yields half that rate of inactivation.

MAO B = target: T1, MAO B (Homo sapiens, UniProt P27338); assay: HRP-coupled amine oxidase assay, time-dependent inactivation of MAO B
T1 sequence (P27338 1-520): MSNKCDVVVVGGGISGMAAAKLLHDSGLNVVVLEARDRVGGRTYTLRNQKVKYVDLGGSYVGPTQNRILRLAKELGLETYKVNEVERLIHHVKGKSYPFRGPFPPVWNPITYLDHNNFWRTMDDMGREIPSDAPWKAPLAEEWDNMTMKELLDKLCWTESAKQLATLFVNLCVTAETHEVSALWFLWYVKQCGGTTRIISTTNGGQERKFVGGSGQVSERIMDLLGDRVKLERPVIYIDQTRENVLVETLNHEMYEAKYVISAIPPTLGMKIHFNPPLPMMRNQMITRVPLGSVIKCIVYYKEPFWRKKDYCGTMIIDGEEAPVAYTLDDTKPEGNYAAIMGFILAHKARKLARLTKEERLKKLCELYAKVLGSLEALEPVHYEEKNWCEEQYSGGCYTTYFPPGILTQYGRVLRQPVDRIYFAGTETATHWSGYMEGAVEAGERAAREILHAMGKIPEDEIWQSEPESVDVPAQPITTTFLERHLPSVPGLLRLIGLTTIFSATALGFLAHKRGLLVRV
Method: as §1, §2, §3, §4, §5

MAO A = target: T2, MAO A (Homo sapiens, UniProt P21397); assay: HRP-coupled amine oxidase assay, time-dependent inactivation of MAO A
T2 sequence (P21397 1-527): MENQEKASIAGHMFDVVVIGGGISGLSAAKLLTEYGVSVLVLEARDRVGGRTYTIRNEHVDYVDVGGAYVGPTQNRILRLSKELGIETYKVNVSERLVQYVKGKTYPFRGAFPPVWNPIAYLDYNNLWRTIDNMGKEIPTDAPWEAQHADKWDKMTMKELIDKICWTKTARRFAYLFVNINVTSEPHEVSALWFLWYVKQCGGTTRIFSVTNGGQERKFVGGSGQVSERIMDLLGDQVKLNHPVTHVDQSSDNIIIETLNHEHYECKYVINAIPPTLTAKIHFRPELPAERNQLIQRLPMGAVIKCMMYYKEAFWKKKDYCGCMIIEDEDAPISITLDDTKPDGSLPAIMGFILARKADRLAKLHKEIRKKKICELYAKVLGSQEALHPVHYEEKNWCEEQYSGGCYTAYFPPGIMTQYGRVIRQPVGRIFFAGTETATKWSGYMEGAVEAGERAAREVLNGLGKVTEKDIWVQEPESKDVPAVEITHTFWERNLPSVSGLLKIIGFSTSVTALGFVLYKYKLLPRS
Method: as §1, §2, §3, §4, §5

Row | Structure (SMILES) | kinact/KI (LSD1) [M⁻¹ s⁻¹] | Ki (LSD1) [µM] | kinact (LSD1) [s⁻¹] | kinact/KI (MAO B) [M⁻¹ s⁻¹] | Ki (MAO B) [µM] | kinact (MAO B) [s⁻¹] | kinact/KI (MAO A) [M⁻¹ s⁻¹] | Ki (MAO A) [µM] | kinact (MAO A) [s⁻¹]
1 | CCOc1ccc(C2CC2N)cc1 (stereo not shown) [compound 1] | 45 | 456 ± 86 | 0.0204 ± 0.0018 | 762 | 63 ± 10 | 0.048 ± 0.004 | 3140 | 4.3 ± 0.8 | 0.0135 ± 0.0004
2 | CC(C)Oc1ccc(C2CC2N)cc1 (stereo not shown) [compound 2] | 54 | 352 ± 76 | 0.0192 ± 0.0017 | 383 | 106 ± 20 | 0.046 ± 0.006 | 1320 | 19.7 ± 4.6 | 0.026 ± 0.002
3 | NC1CC1c1ccc(Oc2ccccc2)cc1 (stereo not shown) [compound 3] |  |  |  | 1100 | 29.5 ± 4.4 | 0.0623 ± 0.0018 | 5720 | 12.4 ± 4.3 | 0.071 ± 0.007
4 | NC1CC1c1cccc(OCc2ccccc2)c1 (stereo not shown) [compound 4] | 33 | 760 ± 280 |  |  |  |  |  |  | 
5 | CC(C)(C)c1ccc(Sc2ccc(C3CC3N)cc2)cc1 (stereo not shown) [compound 5] | 40 |  | 0.0215 ± 0.003 |  |  |  |  |  | 
